According to publication PMC8214651, “Construction and characterization of a functional chimeric laccase from metagenomes suitable as a biocatalyst” (AMB Express, 2021):

System: T1, Lcc120-3 (Mic-mg-MCO120-3)
T1 construct: 98 residues Micromonospora sp; MP36 MCO N-terminus (parent WP_148798198.1) + 387-residue metagenomic core + 54 residues MP36 MCO C-terminus; MBP deleted; E. coli BL21(DE3)
Assay: spectrophotometric oxidation at […] nm, Lineweaver-Burk plot
Assay type: biochemical
Conditions: 50 mM potassium phosphate pH 7.0, 30 °C, purified enzyme without MBP; read-out: Lcc120-3 (Mic-mg-MCO) / Km (mM)/Vmax (U/mg protein)/kcat (s^-1)

Q: `COc1cccc(OC)c1O` [DMP, 2,6-dimethoxyphenol] was tested. Which Km did it give?
A: The Km was 10.5 mM.
